# Results published in ChEMBL document CHEMBL1201862, “PubChem BioAssay data set” (2004).
#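 Each compound was tested at five concentrations against cells in 96-well plates for 48 hours. Here, GI50 denotes the concentration required for 50% inhibition of growth.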 The source made the active and inactive calls. Rule as the data show it: active = GI50 up to about 1.1 µM and inactive = higher.
# Key:
# Assay in all cases: growth of human tumour cells (NCI), 48 h
# 786-0 = system: 786-0
# A498 = system: A498
# A549 = system: A549
# ACHN = system: ACHN
# BT-549 = system: BT-549
# CAKI-1 = system: CAKI-1
# CCRF-CEM = system: CCRF-CEM
# COLO 205 = system: COLO 205
# DU-145 = system: DU-145
# EKVX = system: EKVX
# HCC 2998 = system: HCC 2998
# HCT-116 = system: HCT-116
# HCT-15 = system: HCT-15
# HL-60 = system: HL-60
# HOP-62 = system: HOP-62
# HOP-92 = system: HOP-92
# HT-29 = system: HT-29
# Hs-578T = system: Hs-578T
# IGROV-1 = system: IGROV-1
# K562 = system: K562
# KM12 = system: KM12
# LOX IMVI = system: LOX IMVI
# M14 = system: M14
# MCF7 = system: MCF7
# MDA-MB-435 = system: MDA-MB-435
# MDA-N = system: MDA-N
# MOLT-4 = system: MOLT-4
# Malme-3M = system: Malme-3M
# NCI-H226 = system: NCI-H226
# NCI-H23 = system: NCI-H23
# NCI-H460 = system: NCI-H460
# NCI-H522 = system: NCI-H522
# NCI/ADR-RES = system: NCI/ADR-RES
# OVCAR-3 = system: OVCAR-3
# OVCAR-4 = system: OVCAR-4
# OVCAR-5 = system: OVCAR-5
# OVCAR-8 = system: OVCAR-8
# PC-3 = system: PC-3
# RPMI-8226 = system: RPMI-8226
# RXF 393 = system: RXF 393
# SF-268 = system: SF-268
# SF-295 = system: SF-295
# SF-539 = system: SF-539
# SK-MEL-28 = system: SK-MEL-28
# SK-MEL-2 = system: SK-MEL-2
# SK-MEL-5 = system: SK-MEL-5
# SK-OV-3 = system: SK-OV-3
# SN12C = system: SN12C
# SNB-19 = system: SNB-19
# SNB-75 = system: SNB-75
# SR = system: SR
# SW-620 = system: SW-620
# T47D = system: T47D
# TK-10 = system: TK-10
# U-251 = system: U-251
# UACC-257 = system: UACC-257
# UACC-62 = system: UACC-62
# UO-31 = system: UO-31
structure (smiles),measurement,setting,value
COC(=O)c1c(C)[nH]c2c1C(=O)C(=O)c1nc(C)c(C)nc1-2,GI50,786-0,10.4 µM (inactive)
same,GI50,A498,2.92 µM (inactive)
same,GI50,A549,7.52 µM (inactive)
same,GI50,ACHN,2.85 µM (inactive)
same,GI50,BT-549,10.9 µM (inactive)
same,GI50,CAKI-1,6.75 µM (inactive)
same,GI50,CCRF-CEM,5.04 µM (inactive)
same,GI50,COLO 205,8.63 µM (inactive)
same,GI50,DU-145,6.04 µM (inactive)
same,GI50,EKVX,8.69 µM (inactive)
same,GI50,HCC 2998,8.85 µM (inactive)
same,GI50,HCT-116,4.28 µM (inactive)
same,GI50,HCT-15,9.98 µM
same,GI50,HL-60,9.23 µM (inactive)
same,GI50,HOP-62,5.98 µM (inactive)
same,GI50,HOP-92,5.79 µM (inactive)
same,GI50,HT-29,14 µM (inactive)
same,GI50,Hs-578T,5.85 µM (inactive)
same,GI50,IGROV-1,3.41 µM (inactive)
same,GI50,K562,9.38 µM (inactive)
same,GI50,KM12,10.8 µM (inactive)
same,GI50,LOX IMVI,5.79 µM (inactive)
same,GI50,M14,10.7 µM (inactive)
same,GI50,MCF7,7.48 µM (inactive)
same,GI50,MDA-MB-435,10.7 µM (inactive)
same,GI50,MDA-N,5.37 µM (inactive)
same,GI50,MOLT-4,7.66 µM (inactive)
same,GI50,Malme-3M,3.58 µM (inactive)
same,GI50,NCI-H226,11.8 µM (inactive)
same,GI50,NCI-H23,10.2 µM (inactive)
same,GI50,NCI-H460,5.27 µM (inactive)
same,GI50,NCI-H522,3.48 µM (inactive)
same,GI50,NCI/ADR-RES,12.7 µM (inactive)
same,GI50,OVCAR-3,9.79 µM (inactive)
same,GI50,OVCAR-4,12.9 µM (inactive)
same,GI50,OVCAR-5,11.7 µM (inactive)
same,GI50,OVCAR-8,10.2 µM (inactive)
same,GI50,PC-3,7.53 µM (inactive)
same,GI50,RPMI-8226,10.2 µM (inactive)
same,GI50,RXF 393,1.98 µM (inactive)
same,GI50,SF-268,9.53 µM (inactive)
same,GI50,SF-295,4.54 µM (inactive)
same,GI50,SF-539,10.4 µM (inactive)
same,GI50,SK-MEL-28,11.1 µM (inactive)
same,GI50,SK-MEL-2,3.86 µM (inactive)
same,GI50,SK-MEL-5,5.77 µM (inactive)
same,GI50,SK-OV-3,3.5 µM (inactive)
same,GI50,SN12C,2.84 µM (inactive)
same,GI50,SNB-19,4.76 µM (inactive)
same,GI50,SNB-75,1.21 µM (inactive)
same,GI50,SR,5.33 µM (inactive)
same,GI50,SW-620,10.8 µM (inactive)
same,GI50,T47D,0.162 µM (active)
same,GI50,TK-10,3.6 µM (inactive)
same,GI50,U-251,4.84 µM (inactive)
same,GI50,UACC-257,11 µM (inactive)
same,GI50,UACC-62,4.41 µM (inactive)
same,GI50,UO-31,10.1 µM (inactive)
